The values below come from US20160106821A1, “FUNCTIONAL GHRELIN RECEPTOR ANTAGONISM DURING PREGNANCY TO PREVENT STRESS-ASSOCIATED MENTAL ILLNESS IN OFFSPRING AND MOTHERS” (Massachusetts Institute of Technology, priority 2014, published 2016).

The subject of assay [1] is offspring. The assay is described as follows: Anhedonia (sucrose preference) in offspring after perinatal / in-womb exposure. It counts as in vivo. An excerpt: FIG. 2 is a diagram depicting the protocol for analysis of babies following birth. FIG. 3 depicts the design of the study with protocols involving vehicle control, low MK0677 or high MK0677 treatment. FIG. 4 is a graph depicting the effects of perinatal exposure to MK0677 on female (dark bar) versus male (lighter gray bar) offspring. V refers to a vehicle control. H refers to high MK0677 exposure levels. FIG. 5 is a graph depicting the effects of exposure to MK0677 in the womb on offspring. The first set of experiments was designed to determine the degree of anhedonia in offspring when raised by an MK-treated mom. Anhedonia is the inability of a subject to experience pleasure from activities usually found enjoyable. A first experiment was conducted to show the effects of perinatal exposure to MK0677 on female versus male offspring. V refers to a vehicle control. H refers to high MK0677 exposure levels. […] Additionally the foster mother had no effect. […] Another study involved determining the effects of exposure to MK0677 in the womb on offspring.

Assay [2] relates to post-partum mothers. Nature of the assay: Depressive behaviors in post-partum mothers. The note with it: MK-0677 treatment vs vehicle control (FIG. 1). Format: in vivo. The source says:
FIG. 1 is a graph depicting depressive behaviors in post-partum mothers. […] The data is shown in Figure, a bar graph depicting depressive behaviors in post-partum mothers in response to vehicle control of MK-0677 treatment. Experiments were designed to determine the effects of elevated ghrelin activity on the fetus.

With `CC(C)(N)C(=O)N[C@H](COCc1ccccc1)C(=O)N1CCC2(CC1)CN(S(C)(=O)=O)c1ccccc12` [MK-0677], the “sucrose preference in offspring” value in assay [1] (offspring from mothers exposed to high MK levels (n=11) vs controls (n=12), t-test, p=0.03 (FIG. 5)) was “significantly lower compared to controls”. Moreover, the “degree of anhedonia in offspring: female versus male response” value in assay [1] (perinatal exposure, high MK0677 vs vehicle, female versus male offspring (FIG. 4)) is “no difference was seen between the response of male and female babies”. In addition, in assay [1] (perinatal exposure, high MK0677 vs vehicle, foster mother had no effect (FIG. 4)), the “degree of anhedonia in offspring: foster versus biological mother” value is “an influence was observed for the biological mother”. Also, the “preference of sucrose solution to water (vs. 50%)” value in assay [1] (pups from MK mothers, pups from vehicle-treated mothers significantly preferred sucrose (p=0.046 vs. 50%)) is recorded as “did not”. Further, the maternal depressive behaviors entry in assay [2] is “enhanced maternal depressive behaviors”.
